We go through 27 molecules from patent publication US20060264419A1 (priority 2003, published 2006).

In this assay the target is 5-HT2A receptors (Rattus norvegicus, UniProt P14842). Briefly: in-vitro affinity to 5-HT2A receptors, displacement of [3H]ketanserine (Example A1). It is filed as binding. The settings on record: target not given; description names affinity to 5-HT2A receptors; read-out: IC50. An excerpt:
The 5-HT2A receptors are exposed both to [^3H]ketanserine (a substance which is known for its affinity to the receptor) and also to the test compound. The decrease in the affinity of [^3H]ketanserine to the receptor is an indication of the affinity of the test substance to the 5-HT2A receptor.
In general terms: Displacement assays read how much labelled ligand stays bound in the presence of the test substance.

pIC50: −log10 of the molar value.

One may read the pIC50 as −log10 of the IC50, conventionally taken in molar units.

5-HT2A receptors, sequence (P14842 whole entry): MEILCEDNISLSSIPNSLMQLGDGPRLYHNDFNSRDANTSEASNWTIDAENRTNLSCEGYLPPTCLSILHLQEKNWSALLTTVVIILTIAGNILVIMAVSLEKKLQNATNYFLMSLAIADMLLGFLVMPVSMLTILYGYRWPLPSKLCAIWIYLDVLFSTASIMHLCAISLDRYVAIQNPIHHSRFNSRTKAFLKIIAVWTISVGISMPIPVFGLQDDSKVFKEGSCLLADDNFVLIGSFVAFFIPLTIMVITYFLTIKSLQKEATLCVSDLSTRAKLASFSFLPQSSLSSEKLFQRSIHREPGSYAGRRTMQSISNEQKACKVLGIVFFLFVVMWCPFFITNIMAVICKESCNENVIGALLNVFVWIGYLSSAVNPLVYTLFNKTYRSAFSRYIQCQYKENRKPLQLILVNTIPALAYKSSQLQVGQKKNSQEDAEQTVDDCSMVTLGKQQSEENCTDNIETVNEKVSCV

Take `CN1CCN(Cc2cnn(-c3ccc(-c4ccsc4)cc3)c2-c2ccc(F)cc2)CC1` [(102), 1-[5-(4-Fluorophenyl)-1-(4-thiophen-3-ylphenyl)-1H-pyrazol-4-ylmethyl]-4-methylpiperazine]: the pIC50 is 5.96.
The value for `CN1CCN(Cc2cnn(-c3ccc(-c4ccccc4F)cc3)c2-c2ccco2)CC1` [(103), 1-[1-(2′-Fluorobiphenyl-4-yl)-5-furan-2-yl-1H-pyrazol-4-ylmethyl]-4-methylpiperazine] was 7.60; that for `COc1ccccc1-c1c(CN2CCN(C)CC2)cnn1-c1ccc(-c2ccccc2F)cc1` [(104), 1-[1-(2′-Fluorobiphenyl-4-yl)-5-(2-methoxyphenyl)-1H-pyrazol-4-ylmethyl]-4-methylpiperazine] was 7.28; that for `COc1ccccc1-c1c(CN2CCN(C)CC2)cnn1-c1ccc(-c2ccsc2)cc1` [(105), 1-[5-(2-Methoxyphenyl)-1-(4-thiophen-3-ylphenyl)-1H-pyrazol-4-ylmethyl]-4-methylpiperazine] was 6.34.
In the case of `CN1CCN(Cc2cnn(-c3ccc(-n4cccc4)cc3)c2-c2ccccc2F)CC1` [(106), 1-[5-(2-Fluorophenyl)-1-(4-pyrrol-1-ylphenyl)-1H-pyrazol-4-ylmethyl]-4-methylpiperazine] it was 7.77.
For the molecule `Fc1ccccc1-c1c(CNC2CN3CCC2CC3)cnn1-c1ccc(-c2ccccc2)cc1` (stereo not drawn) [(107), (1-Azabicyclo[2.2.2]oct-3-yl)-[1-biphenyl-4-yl-5-(2-fluorophenyl)-1H-pyrazol-4-ylmethyl]amine], the pIC50 is 6.85.
With `O=S1(=O)CCN(Cc2cnn(-c3ccc(-c4ccccc4)cc3)c2-c2ccccc2F)CC1` [(108), 4-[1-Biphenyl-4-yl-5-(2-fluorophenyl)-1H-pyrazol-4-ylmethyl]-thiomorpholine 1,1-dioxide], the pIC50 is 7.37.
The value for `CN1CC2CC1CN2Cc1cnn(-c2ccc(-c3ccccc3)cc2)c1-c1ccccc1F` (stereo not drawn) [(109), 2-[1-Biphenyl-4-yl-5-(2-fluorophenyl)-1H-pyrazol-4-ylmethyl]-5-methyl-2,5-diazabicyclo[2.2.1]heptane] was 7.03; that for `CCOC(=O)N1CCC(N(C)Cc2cnn(-c3ccc(-c4ccccc4)cc3)c2-c2ccccc2F)CC1` [(110), Ethyl 4-{[1-biphenyl-4-yl-5-(2-fluorophenyl)-1H-pyrazol-4-ylmethyl]methylamino}piperidine-1-carboxylate] was 6.77; that for `NC(=O)CN1CCN(Cc2cnn(-c3ccc(-c4ccccc4)cc3)c2-c2ccccc2F)CC1` [(111), 2-{4-[1-Biphenyl-4-yl-5-(2-fluorophenyl)-1H-pyrazol-4-ylmethyl]piperazin-1-yl}acetamide] was 6.44.
In the case of `COC(=O)CCNCc1cnn(-c2ccc(-c3ccccc3)cc2)c1-c1ccccc1F` [(112), Methyl 3-{[1-biphenyl-4-yl-5-(2-fluorophenyl)-1H-pyrazol-4-ylmethyl]amino}propionate] it was 6.68; in that of `CN1CCN(Cc2cnn(-c3ccc(-c4ccccc4)cc3)c2-c2cccnc2)CC1` [(113), 1-(1-Biphenyl-4-yl-5-pyridin-3-yl-1H-pyrazol-4-ylmethyl)-4-methylpiperazine], 6.54.
The value for `CC(C)c1ccc(-n2ncc(CN3CCN(C)CC3)c2-c2ccccc2F)cc1` [(114), 1-[5-(2-Fluorophenyl)-1-(4-isopropylphenyl)-1H-pyrazol-4-ylmethyl]-4-methylpiperazine] was 6.92; that for `CN1CCN(Cc2cnn(-c3ccc(OC(F)(F)F)cc3)c2-c2ccccc2F)CC1` [(115), 1-[5-(2-Fluorophenyl)-1-(4-trifluoromethoxyphenyl)-1H-pyrazol-4-ylmethyl]-4-methylpiperazine] was 6.57; that for `CN1CCN(Cc2cnn(-c3ccc(-c4ccc(F)cc4)nc3)c2-c2ccccc2F)CC1` [(116), 1-{5-(2-Fluorophenyl)-1-[6-(4-fluorophenyl)pyridin-3-yl]-1H-pyrazol-4-ylmethyl}-4-methylpiperazine] was 6.92.
`CCOC(=O)CNCc1cnn(-c2ccc(-c3ccccc3)cc2)c1-c1cccnc1` [(117), Ethyl [(1-biphenyl-4-yl-5-pyridin-3-yl-1H-pyrazol-4-ylmethyl)-amino]acetate]: the negative-log IC50 (pIC50) is 6.03.
In the case of `NC(=O)CNCc1cnn(-c2ccc(-c3ccccc3)cc2)c1-c1ccccc1F` [(118), 2-{[1-Biphenyl-4-yl-5-(2-fluorophenyl)-1H-pyrazol-4-ylmethyl]-amino}acetamide] it was 6.14.
On to `OCc1cnn(-c2ccc(-c3ccc(F)cc3)nc2)c1-c1ccccc1F` [(119), {5-(2-Fluorophenyl)-1-[6-(4-fluorophenyl)pyridin-3-yl]-1H-pyrazol-4-yl}methanol], for which the pIC50 is 6.52.
With `CN1CCN(Cc2cnn(-c3ccc(-c4cccnc4)cc3)c2-c2ccccc2F)CC1` [(120), 1-[5-(2-Fluorophenyl)-1-(4-pyridin-3-ylphenyl)-1H-pyrazol-4-ylmethyl]-4-methylpiperazine], the negative logarithm of the IC50 (pIC50) was 6.77.
In the case of `CN1CCN(Cc2cnn(-c3ccc(-c4ccncc4)cc3)c2-c2ccccc2F)CC1` [(121), 1-[5-(2-Fluorophenyl)-1-(4-pyridin-4-ylphenyl)-1H-pyrazol-4-ylmethyl]-4-methylpiperazine] it was 7.11.
As for `Fc1ccc(F)c(-c2ccc(-n3ncc(CNCC4CCCO4)c3-c3ccccc3F)cc2)c1` (stereo not drawn) [(122), [1-(2′,5′-Difluorobiphenyl-4-yl)-5-(2-fluorophenyl)-1H-pyrazol-4-ylmethyl](tetrahydrofuran-2-ylmethyl)amine], the negative-log IC50 (pIC50) was 6.43.
Take `CS(=O)(=O)N1CCN(Cc2cnn(-c3ccc(-c4ccccc4)cc3)c2-c2ccccc2F)CC1` [(123), 1-[1-Biphenyl-4-yl-5-(2-fluorophenyl)-1H-pyrazol-4-ylmethyl]-4-methanesulfonylpiperazine]: the pIC50 was 6.08.
In the case of `N#CCNCc1cnn(-c2ccc(-c3ccccc3)cc2)c1-c1ccccc1F` [(124), {[1-Biphenyl-4-yl-5-(2-fluorophenyl)-1H-pyrazol-4-ylmethyl]-amino}acetonitrile] it was 6.55.
In the case of `O=C(Nc1ccccc1)N1CCN(Cc2cnn(-c3ccc(-c4ccccc4)cc3)c2-c2ccccc2F)CC1` [(126), N-Phenyl-4-[1-biphenyl-4-yl-5-(2-fluorophenyl)-1H-pyrazol-4-ylmethyl]piperazine-1-carboxamide] it was 6.10.
The value for `CN(C)CCN(C)Cc1cnn(-c2ccc(-c3ccccc3)nc2)c1-c1ccccc1F` [(127), N-[5-(2-Fluorophenyl)-1-(6-phenylpyridin-3-yl)-1H-pyrazol-4-ylmethyl]-N,N′,N′-trimethylethane-1,2-diamine] was 6.36; that for `CN(C)C(=O)CNCc1cnn(-c2ccc(-c3ccccc3)cc2)c1-c1ccccc1F` [(128), 2-{[1-Biphenyl-4-yl-5-(2-fluorophenyl)-1H-pyrazol-4-ylmethyl]-amino}-N,N-dimethylacetamide] was 6.70.
As for `O=C(CNCc1cnn(-c2ccc(-c3ccccc3)cc2)c1-c1ccccc1F)Nc1ccc([N+](=O)[O-])cc1` [(129), 2-{[1-Biphenyl-4-yl-5-(2-fluorophenyl)-1H-pyrazol-4-ylmethyl]-amino}-N-(4-nitrophenyl)acetamide], the pIC50 was 7.00.
